The values that follow come from PMC12974487, “Inhibition of FicD-mediated AMPylation and deAMPylation by isoprenoid diphosphates” (Proceedings of the National Academy of Sciences of the …, 2026).

Substitutions are numbered along the chain they refer to.

The target of one test is T1, FicD^H363A (Homo sapiens, UniProt Q9BVA6, H363A).
T1 construct: soluble ER luminal domain (residues 105 to 458) of wild-type human FicD and three mutants; 6xHis-Sumo (N, cleaved yes); made in house; host or cells: Rosetta(DE3) E. coli
T1 sequence (Q9BVA6 105-458 H363A): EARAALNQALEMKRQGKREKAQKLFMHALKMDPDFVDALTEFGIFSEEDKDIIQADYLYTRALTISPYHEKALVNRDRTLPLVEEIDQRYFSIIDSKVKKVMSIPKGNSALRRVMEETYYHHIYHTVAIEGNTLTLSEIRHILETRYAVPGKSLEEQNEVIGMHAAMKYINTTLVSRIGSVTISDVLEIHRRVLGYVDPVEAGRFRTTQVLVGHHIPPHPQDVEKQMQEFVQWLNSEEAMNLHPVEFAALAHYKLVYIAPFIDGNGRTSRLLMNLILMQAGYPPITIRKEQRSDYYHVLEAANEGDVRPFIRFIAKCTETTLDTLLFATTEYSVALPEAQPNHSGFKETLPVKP
The test can be described thus: MIDAS metabolite screen, FicD^H363A. The settings on record: cutoff Q < 0.05 and |Log2 corrected fold change| > 2, metabolites 5 µM. The format is binding. The text has this:
(§1) To identify small-molecule metabolite interactions with FicD, we applied an unbiased high-throughput screening approach known as MIDAS ([44]). Given the high concentrations of protein required for MIDAS screening, we purified the soluble ER luminal domain (residues 105 to 458) of wild-type human FicD and three mutants FicD^E234G, FicD^L258D, and FicD^H363A for screening (Fig. 1A). These mutants were selected based on their well-established biochemical features ([23], [24], [31]). All three are predicted to enhance detection of protein–metabolite interactions (PMIs) relative to FicD^WT through increased affinity for nucleotide substrates (FicD^E234G), improved solubility (FicD^L258D), and loss of catalytic turnover (FicD^H363A) (Fig. 1A). To decrease the potential for nonspecific small-molecule binding, we ensured the purity of our FicD proteins (SI Appendix, Fig. S1 A and B). As reported by other investigators ([24], [31]), we observe an increase in elution volume of the FicD^L258D mutant, consistent with its monomerization (SI Appendix, Fig. S1C).
(§2) Out of the 602 naturally occurring human metabolites in the MIDAS library, we applied a significance cutoff (q value < 0.05) to identify 12 PMIs with a Log2 (corrected fold change) of >2 and two PMIs with a Log2 (corrected fold change) <-2 in the FicD^WT screen (Fig. 1B and SI Appendix, Table S2). Hits were additionally triaged based on detection of multiple adducts of the metabolite in a single dataset (FPP and […] in Fig. 1B) and identification of the same metabolites across three or more of the FicD construct screens (Fig. 1C). Three chemical classes passed this initial triage: adenosine nucleotides, isoprenoid diphosphates, and thyroid hormone intermediates (Fig. 1 B and C and SI Appendix, Tables S2–S5).
(§3) 22°C. Induced cultures were then harvested by centrifugation at 8000G for 15 minutes at 4°C and […]
(§4) Bacterial pellets were resuspended in 30-50mL of 50mM Tris pH 7.4/150mM NaCl/10% glycerol with one Roche cOmplete EDTA-Free Protease inhibitor cocktail tablet (cat no. COEDTAF-RO).
(§5) Triton-X100 to a final concentration of 0.2%, Chicken-egg lysozyme to a final concentration of 0.4ug/mL, and 2-5uL of Millipore Benzonase Nuclease (cat no. 70664) were added to bacterial suspension prior to sonication at 40-50% amplitude for 1-3 minutes in pulses of 5 seconds on and 30 seconds off on ice with a Sonics VCX 750 Ultrasonicator. Bacterial lysate was then clarified by centrifugation at 30,000 x g for 30 minutes at 4°C.
Clarified lysate was rotated with Qiagen NiNTA agarose beads (cat no. 30210) for 1-2 hours at 4°C. […]

Another test concerns the target T2, FicD^E234G (Homo sapiens, UniProt Q9BVA6, E234G).
T2 construct: soluble ER luminal domain (residues 105 to 458) of wild-type human FicD and three mutants; 6xHis-Sumo (N, cleaved yes); made in house; host or cells: Rosetta(DE3) E. coli
T2 sequence (Q9BVA6 105-458 E234G): T1 sequence (Q9BVA6 105-458 H363A) with E130G, A259H
The test can be described thus: MIDAS metabolite screen, FicD^E234G. The settings on record: cutoff Q < 0.05 and |Log2 corrected fold change| > 2, metabolites 5 µM. The format is binding.

In the next test the target is T3, FicD^L258D (Homo sapiens, UniProt Q9BVA6, L258D).
T3 construct: soluble ER luminal domain (residues 105 to 458) of wild-type human FicD and three mutants; 6xHis-Sumo (N, cleaved yes); made in house; host or cells: Rosetta(DE3) E. coli
T3 sequence (Q9BVA6 105-458 L258D): T1 sequence (Q9BVA6 105-458 H363A) with L154D, A259H
Kind of test: MIDAS metabolite screen, FicD^L258D. The settings on record: cutoff Q < 0.05 and |Log2 corrected fold change| > 2, metabolites 5 µM. The test is classed as binding.
Text: as §1, §2, §3, §4, §5
Clarified lysate was rotated with Qiagen NiNTA agarose beads (cat no. 30210) for 1-2 hours at 4°C. The beads were then transferred to a 15mL conical vial, resuspended in 10-15mL wash buffer (50mM Tris pH 7.4/150mM NaCl/10% glycerol/0.2% Triton-X 100/10mM imidazole), and spun down at 1000G for 1 minute at 4°C, after which the supernatant was aspirated from the beads. This washing step was repeated 2-4 times to rinse bacterial lysate from the beads prior to on-column washing. The beads were then transferred to BioRad Econopac 20mL bed volume column (cat no.
7321010) and washed with 10-15mL of wash buffer (repeated at least three times), 10mL of ATP wash (50mM Tris pH 7.4/300mM KCl/10mM MgCl2/500uM ATP, repeated once), and finally with 10-15mL wash buffer without Triton-X 100 (repeated at least three times). Protein was eluted in 500μL-1mL elution buffer (50mM Tris pH 7.5/150mM NaCl/10% glycerol/0.5% CHAPS). […]

For the next test, the target named is T4, FicD^WT (Homo sapiens, UniProt Q9BVA6).
T4 construct: soluble ER luminal domain (residues 105 to 458) of wild-type human FicD; 6xHis-Sumo (N, cleaved yes); made in house; host or cells: Rosetta(DE3) E. coli
T4 sequence (Q9BVA6 105-458): T1 sequence (Q9BVA6 105-458 H363A) with A259H
Kind of test: MIDAS equilibrium dialysis/mass spectrometry metabolite screen, FicD^WT. The format is binding. The settings on record: cutoff Q < 0.05 and |Log2 corrected fold change| > 2, metabolites 5 µM. On the technique in general: In equilibrium dialysis only unbound substance equilibrates across the membrane.

The next test concerns FicD. Set-up: method as in PMID 40036289. The settings on record: cited from earlier work.

`N[C@@H](Cc1ccc(Oc2ccc(O)c(I)c2)c(I)c1)C(=O)O` [3,3’-Diiodothyronine]: the “MIDAS protein-metabolite interaction (enrichment/depletion)” value on FicD^H363A, at FicD^E234G, on FicD^L258D and on FicD^WT was “significantly enriched” throughout.
`N[C@@H](Cc1cc(I)c(Oc2ccc(O)c(I)c2)c(I)c1)C(=O)O` [liothyronine]: the “FicD inhibition reported in previous drug screens” value with FicD is “small-molecule inhibitor of FicD”.
